Data: patent publication US8318184B2, “MGLU2 agonists” (Eli Lilly and Company, priority 2009, dated 2012)

Experiments:
human mGlu2 receptor = molecular target: T1, human mGlu2 receptor (Homo sapiens, UniProt Q14416); test: Human mGlu2 Agonist FLIPR Assay; format: cell-based; settings: hmGlu2 FLIPR assay, AV-12 cells, relative EC50
T1 construct: expressed in transfected cells; co-transfected with rat EAAT1 and Galpha15
Source text: AV-12 cell lines, derived from Syrian Hamster fibroblasts and stably expressing the human mGlu2 receptor and co-transfected with the rat glutamate transporter EAAT 1 (Excitatory Amino Acid Transporter 1) and the Gα15 subunit, are used for these studies. The expression of Gα15 allows Gi-coupled receptors to signal through the phospholipase C pathway, resulting in the ability to measure receptor activation by a fluorometric calcium response assay. […]
Intracellular calcium levels are monitored before and after the addition of compounds using a Fluorometric Imaging Plate Reader (FLIPR, Molecular Devices). […] Results are analyzed using Prism v4.03 (GraphPad Software). […] After taking an initial 5-sec fluorescent read on the FLIPR instrument, a compound of the present invention is added to the cell plate (50 μL per well). […] The compound effect is measured as maximal minus minimal peak heights in relative fluorescent units (RFUs) corrected for basal fluorescence measured in the absence of glutamate. […] Agonist effects are quantified as percent stimulation induced by compound alone relative to the maximal glutamate response. All data are calculated as relative EC50 values using a four-parameter logistic curve fitting program (ActivityBase v5.3.1.22).

Sprague-Dawley rats = test: Forced Swim Test in rats; format: in vivo, rat
Protocol: In this assay, mechanisms with purported antidepressant-like activity decrease immobility in a brief inescapable forced swim episode.
The forced-swim test is conducted with both mice (male, NIH-Swiss mice, 20-25 g, Harlan Sprague-Dawley, Indianapolis, Ind.) and rats (male, Sprague-Dawley rats, 250-350 g, Harlan Sprague-Dawley, Indianapolis, Ind.). Mice are placed in clear plastic cylinders (diameter 10 cm; height: 25 cm) filled to 6 cm with 22-25° C. water for six min. The duration of immobility is recorded during the last 4 min of a six-minute trial. Rats are treated similarly, albeit in clear plastic cylinders of larger dimensions (diameter: 18 cm; height: 40 cm) filled with water (22-25° C.) to a depth of 16 cm for 15 min. Additionally, mice receive a single forced swim exposure; rats receive two, 5-min sessions separated by 24 hours (data is recorded only on Day 2). The compound of Example 1 is tested in mice using intraperitoneal dosing (1, 3, or 10 mg/kg), 60 min prior to testing. […] Example 2 is administered 5 min following the first forced swim exposure and 120 min prior to the test session on Day 2. Imipramine is used as a positive control for these studies. Compounds are formulated in a water vehicle, with minimal NaOH being added to Example 1 and Example 2. Compounds are in a clear solution. The amount of time spent immobile (defined as movements only necessary to keep the subject's head above water) is the dependent measure and recorded by an observer blinded to the drug treatment of the subjects. Data are analyzed by post-hoc Dunnett's test with alpha level set at 0.05. The mouse version of the forced swim test is most commonly used. An ED60 value (60% of the amount of immobility relative to vehicle controls) is calculated to estimate potency of the test compounds.

T1 sequence (Q14416 19-872): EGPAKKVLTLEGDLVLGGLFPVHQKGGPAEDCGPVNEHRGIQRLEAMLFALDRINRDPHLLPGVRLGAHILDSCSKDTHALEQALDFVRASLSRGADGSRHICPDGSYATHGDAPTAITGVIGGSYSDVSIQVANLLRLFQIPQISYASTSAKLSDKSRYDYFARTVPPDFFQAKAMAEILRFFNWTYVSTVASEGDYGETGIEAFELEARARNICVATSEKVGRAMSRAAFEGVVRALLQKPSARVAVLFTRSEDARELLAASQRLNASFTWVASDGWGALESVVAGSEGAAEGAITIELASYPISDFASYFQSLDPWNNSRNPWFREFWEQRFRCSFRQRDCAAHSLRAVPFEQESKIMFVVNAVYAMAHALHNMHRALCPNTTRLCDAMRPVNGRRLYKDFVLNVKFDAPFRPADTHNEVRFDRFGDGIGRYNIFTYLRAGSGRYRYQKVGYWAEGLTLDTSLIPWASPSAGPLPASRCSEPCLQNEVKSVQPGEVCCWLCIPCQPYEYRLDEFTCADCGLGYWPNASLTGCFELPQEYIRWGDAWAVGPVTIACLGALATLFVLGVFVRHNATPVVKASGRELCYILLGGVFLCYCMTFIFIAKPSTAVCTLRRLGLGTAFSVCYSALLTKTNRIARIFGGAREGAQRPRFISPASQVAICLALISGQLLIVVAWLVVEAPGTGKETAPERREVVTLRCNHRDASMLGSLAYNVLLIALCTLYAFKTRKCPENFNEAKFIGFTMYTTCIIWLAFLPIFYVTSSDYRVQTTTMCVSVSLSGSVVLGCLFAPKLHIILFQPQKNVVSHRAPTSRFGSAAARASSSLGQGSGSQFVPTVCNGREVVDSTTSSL

EC50 (human mGlu2 receptor)	SMILES	maximal effect, immobility as % of vehicle-treated rats (Sprague-Dawley rats; oral dosing)	immobility time (Sprague-Dawley rats; oral, following dosing with 4.1 and 13.8 mg/kg, F(4,29)=14.72, p<0.0001)
23 nM	N[C@@]1(C(=O)O)C[C@@H](Sc2nnc[nH]2)[C@H]2[C@H](C(=O)O)[C@H]21 [Example 1, (1R,2S,4R,5R,6R)-2-Amino-4-(4H-1,2,4-triazol-3-ylsulfanyl)bicyclo[3.1.0]hexane-2,6-dicarboxylic acid]	–	–
–	C[C@H](N)C(=O)N[C@@]1(C(=O)O)C[C@@H](Sc2nnc[nH]2)[C@H]2[C@H](C(=O)O)[C@H]21.Cl [Example 2, (1R,2S,4R,5R,6R)-2-[[(2S)-2-Aminopropanoyl]amino]-4-(1H-1,2,4-triazol-3-ylsulfanyl)bicyclo[3.1.0]hexane-2,6-dicarboxylic acid hydrochloride]	68%	significantly decreased immobility time
